“Also recorded” adds a separate entry of the source.

The text below walks through data of patent US6555545B2, “Adenosine A2A receptor antagonists for treating and preventing hepatic fibrosis, cirrhosis and fatty liver” (New York University, priority 2000, dated 2003).

In data set [1] the test system is rat hepatic stellate cells (rHSC). Briefly: Collagen production by immortalized rat hepatic stellate cells (14C-proline pulse, phosphorimager). The following applies: for collagen production, % of control: n=4; for effect of antagonist on CGS-21680-mediated increase in collagen production (in words): rHSC, CSC 10 micro-M, preincubation four hours. In kind it is cell-based. On the procedure: To determine whether an increase in adenosine release would promote collagen production, immortalized rat hepatic stellate cells (rHSC, gift from Dr. S. L. Friedman) were incubated with agonists and antagonists at various adenosine receptors, after which collagen production was quantitated. Rat hepatic stellate cells were treated with […] at various concentrations with or without the addition of 10 micro-M adenosine A2A receptor antagonist CSC following pulsing with ^14C-proline. The collagen was extracted by ethanol precipitation and quantified following phosphorimager exposure.
The cAMP/protein kinase A pathway is known to mediate adenosine A2A receptor signal transduction. The effect of protein kinase A inhibition was studied on CGS-21680-mediated collagen production in rHSC. Rat HSC were treated with 10 micromolar CGS-21680 for four hours at 37° C., 5% CO2, with or without the addition of 10 micromolar KT-5720, a protein kinase A inhibitor, and collagen production was extracted by ethanol precipitation and quantified following phosphoimager exposure.

The subject of data set [2] is human hepatic stellate cells (LX-1). Briefly: Collagen production by immortalized human hepatic stellate cells. It counts as cell-based. On the procedure: Since A2A receptor selectivity of CGS-21680 decreases with increasing concentration, and recruitment of A2B receptor activity is observed with CGS-21680 concentrations above 100 nM, agonistic effects in A2B receptors by high-dose CGS-21680 is likely to be responsible for the decrease in collagen production. This is consistent with Dubey's observations on cardiac fibroblasts that adenosine A2B receptor activation decreases collagen synthesis, Dubey et al., Hypertension 1998; 31(4):943-8. Alternatively, CGS-21680-induced changes in collagen production may be the result of alterations in the expression of collagenase/metalloproteinases (MMP) or their inhibitors, tissue inhibitors of metalloproteinases, TIMP. Adenosine, acting through one of its receptors, most likely the A2B receptor, has been noted to alter metalloproteinase expression (Boyle et al., Arthritis Rheum 1996:39(6):923-30.

The next data set relates to HepG2 cells. As to the kind of experiment: Adenosine release from HepG2 cells, quantitated by HPLC. The following applies: for effect on adenosine release (in words): pharmacologically relevant concentrations, ethanol up to 80 mg/dl.

As a reminder, the EC50 is the midpoint of the concentration-response curve. `CCNC(=O)[C@H]1O[C@@H](n2cnc3c(N)nc(NCCc4ccc(CCC(=O)O)cc4)nc32)[C@H](O)[C@@H]1O` [CGS-21680]: the “collagen production, % of control” value in data set [1] (10 micromolar CGS-21680 alone, four hours) was 339±99 % of control. In addition, in data set [1] (concentration of 10 mM as printed, n=6, p<0.001), the “increase in collagen production over control” value was determined as 3223±917%. The concentration giving a half-maximal response (EC50) in data set [1] (cultured rat stellate cell line, dose-dependent, read-out: EC50 for promotion of collagen synthesis and release) is roughly 300 nM. Also, the “maximal promotion of collagen synthesis and release” value in data set [1] (cultured rat stellate cell line, p<0.004) is no more than 20 fold. Further, the “effect on collagen production (in words)” value in data set [2] (CGS-21680 concentrations above 100 nM) is “collagen production by LX-1 decreases”; in data set [2] (CGS-21680 concentrations up to 100 nM, dose dependent), “increased collagen production”.

Turning to `Cn1c(=O)c2c(nc(C=Cc3cccc(Cl)c3)n2C)n(C)c1=O` [CSC, 8-(3-chlorostyryl)-caffeine], in data set [1], the “effect of antagonist on CGS-21680-mediated increase in collagen production (in words)” value is “almost completely blocks; also recorded: almost completely abrogated”. In addition, the “effect of antagonist on CGS-21680-induced collagen production (in words)” value in data set [2] is “blocked by CSC”.

As to `CCCn1c(=O)c2[nH]c(C3CCCC3)nc2n(CCC)c1=O` [DPCPX, 8-cyclopentyldipropylxanthine], in data set [1], the “effect of antagonist on CGS-21680-mediated increase in collagen production (in words)” value is reported as “little effect; also recorded: minimal inhibitory effects”.

As for `CCCCCCOC(=O)[C@]1(O)C[C@@H]2O[C@@]1(C)n1c3ccccc3c3c4c(c5c6ccccc6n2c5c31)C(=O)NC4` [KT-5720], the “collagen production, % of control” value in data set [1] (10 micromolar CGS-21680 plus 10 micromolar KT-5720, four hours) is 181±69 % of control. For the same molecule, the “suppression of the CGS-21680-mediated increase in collagen production” value in data set [1] (10 micromolar KT-5720 with 10 micromolar CGS-21680, four hours, n=4, p<0.013) is recorded as 47%.

Turning to `CCCn1c(=O)[nH]c(=O)c2[nH]cnc21` [enprofylline], the “effect of antagonist on CGS-21680-mediated increase in collagen production (in words)” value in data set [1] was “little effect; also recorded: minimal inhibitory effects”.

Turning to `CCO` [ethanol], in the data set with HepG2 cells (ethanol 40 mg/dl, three hours), the “increase in adenosine release from control” value is “four-fold”. The adenosine release in the data set with HepG2 cells (ethanol 40 mg/dl, three hours, n=6, p<0.001 vs control 37±35 nM) turned out to be 206 ± 79 nM. Besides, in the data set on HepG2 cells (ethanol concentrations greater than 80 mg/dl), the “toxicity to HepG2 cells” value is given as “toxic to HepG2 cells”. Moreover, the “effect on adenosine release (in words)” value in the data set with HepG2 cells is reported as “increased adenosine release; also recorded: promote adenosine release”. Also, the “effect of ethanol on adenosine release from methotrexate-treated HepG2 cells” value in the data set with HepG2 cells (relevant concentrations of methotrexate, data not shown) is listed as “further increased adenosine release”.

As to `CN(Cc1cnc2nc(N)nc(N)c2n1)c1ccc(C(=O)N[C@@H](CCC(=O)O)C(=O)O)cc1` [methotrexate], in the data set with HepG2 cells (methotrexate 10 nM, three hours), the “increase in adenosine release vs control” value is given as “six-fold”. The adenosine release in the data set with HepG2 cells (methotrexate 10 nM, three hours, n=6, p<0.001 vs control 41±39 nM) was found to be 242 ± 82 nM. For the same molecule, the “effect on adenosine release (in words)” value with HepG2 cells is listed as “increased adenosine release; also recorded: promotes adenosine release”.
